Laboratory results reported in the NIST ThermoML archive (doi:10.1021/je100832h).
Numbers after ± are expanded uncertainties.

Columns and labels:
[1] = xn = mol fraction of the nth substance listed; settings: 328.15 K, 101.32 kPa, Liquid, Vibrating tube method
[2] = excess molar enthalpy (molar enthalpy of mixing); xn = mol fraction of the nth substance listed; settings: 101 kPa, Liquid, Calvet calorimetry

`CCCCCCCC` [octane] + CCOC(C)=O showed a mass density ([1]; x2 = 0.5234) of 739.31 ± 0.89 kg/m3, a mass density ([1]; x2 = 0.5735) of 748.22 ± 0.94 kg/m3 and a mass density ([1]; x2 = 0.6354) of 760.07 ± 0.99 kg/m3. The mass density ([1]; x2 = 0.6861) was 770.65 ± 1.1 kg/m3, the mass density ([1]; x2 = 0.7435) was 783.45 ± 1.1 kg/m3 and the mass density ([1]; x2 = 0.7958) was 796.07 ± 1.2 kg/m3. It also gave a mass density ([1]; x2 = 0.8407) of 807.86 ± 1.2 kg/m3, a mass density ([1]; x2 = 0.8822) of 819.28 ± 1.3 kg/m3 and a mass density ([1]; x2 = 0.927) of 832.83 ± 1.4 kg/m3. The mass density ([1]; x2 = 0.9737) was 848.01 ± 1.5 kg/m3, the excess molar enthalpy ([2]; 291.15 K, x2 = 0.0994) was 0.611 ± 0.013 kJ/mol and the excess molar enthalpy ([2]; 291.15 K, x2 = 0.1715) was 0.963 ± 0.021 kJ/mol. The excess molar enthalpy ([2]; 291.15 K, x2 = 0.254) was 1.27 ± 0.027 kJ/mol, the excess molar enthalpy ([2]; 291.15 K, x2 = 0.3369) was 1.49 ± 0.032 kJ/mol and the excess molar enthalpy ([2]; 291.15 K, x2 = 0.4081) was 1.6 ± 0.034 kJ/mol. For the same compound, the excess molar enthalpy ([2]; 291.15 K, x2 = 0.474) was 1.67 ± 0.036 kJ/mol, the excess molar enthalpy ([2]; 291.15 K, x2 = 0.5317) was 1.67 ± 0.036 kJ/mol and the excess molar enthalpy ([2]; 291.15 K, x2 = 0.5698) was 1.64 ± 0.035 kJ/mol. The excess molar enthalpy ([2]; 291.15 K, x2 = 0.5955) was 1.61 ± 0.035 kJ/mol, the excess molar enthalpy ([2]; 291.15 K, x2 = 0.6441) was 1.55 ± 0.033 kJ/mol and the excess molar enthalpy ([2]; 291.15 K, x2 = 0.6953) was 1.44 ± 0.031 kJ/mol. It also gave an excess molar enthalpy ([2]; 291.15 K, x2 = 0.7435) of 1.31 ± 0.028 kJ/mol, an excess molar enthalpy ([2]; 291.15 K, x2 = 0.7996) of 1.14 ± 0.024 kJ/mol and an excess molar enthalpy ([2]; 291.15 K, x2 = 0.853) of 0.944 ± 0.02 kJ/mol. The excess molar enthalpy ([2]; 291.15 K, x2 = 0.8967) was 0.737 ± 0.016 kJ/mol, the excess molar enthalpy ([2]; 291.15 K, x2 = 0.9435) was 0.492 ± 0.011 kJ/mol and the excess molar enthalpy ([2]; 291.15 K, x2 = 0.981) was 0.243 ± 0.006 kJ/mol. The excess molar enthalpy ([2]; 298.15 K, x2 = 0.0774) was 0.426 ± 0.009 kJ/mol, the excess molar enthalpy ([2]; 298.15 K, x2 = 0.1517) was 0.745 ± 0.016 kJ/mol and the excess molar enthalpy ([2]; 298.15 K, x2 = 0.2198) was 1.02 ± 0.022 kJ/mol. It also gave an excess molar enthalpy ([2]; 298.15 K, x2 = 0.2861) of 1.23 ± 0.026 kJ/mol, an excess molar enthalpy ([2]; 298.15 K, x2 = 0.3374) of 1.37 ± 0.029 kJ/mol and an excess molar enthalpy ([2]; 298.15 K, x2 = 0.3769) of 1.47 ± 0.032 kJ/mol. It also gave an excess molar enthalpy ([2]; 298.15 K, x2 = 0.4335) of 1.58 ± 0.034 kJ/mol, an excess molar enthalpy ([2]; 298.15 K, x2 = 0.4856) of 1.6 ± 0.034 kJ/mol and an excess molar enthalpy ([2]; 298.15 K, x2 = 0.5281) of 1.6 ± 0.034 kJ/mol. The excess molar enthalpy ([2]; 298.15 K, x2 = 0.5773) was 1.59 ± 0.034 kJ/mol, the excess molar enthalpy ([2]; 298.15 K, x2 = 0.6255) was 1.55 ± 0.033 kJ/mol and the excess molar enthalpy ([2]; 298.15 K, x2 = 0.6736) was 1.47 ± 0.031 kJ/mol. The excess molar enthalpy ([2]; 298.15 K, x2 = 0.7261) was 1.36 ± 0.029 kJ/mol, the excess molar enthalpy ([2]; 298.15 K, x2 = 0.7729) was 1.22 ± 0.026 kJ/mol and the excess molar enthalpy ([2]; 298.15 K, x2 = 0.8276) was 1.03 ± 0.022 kJ/mol. The excess molar enthalpy ([2]; 298.15 K, x2 = 0.8796) was 0.801 ± 0.017 kJ/mol, the excess molar enthalpy ([2]; 298.15 K, x2 = 0.9202) was 0.54 ± 0.012 kJ/mol and the excess molar enthalpy ([2]; 298.15 K, x2 = 0.9644) was 0.271 ± 0.006 kJ/mol. For the same compound, the excess molar enthalpy ([2]; 318.15 K, x2 = 0.0832) was 0.463 ± 0.01 kJ/mol, the excess molar enthalpy ([2]; 318.15 K, x2 = 0.1591) was 0.814 ± 0.018 kJ/mol and the excess molar enthalpy ([2]; 318.15 K, x2 = 0.2322) was 1.12 ± 0.024 kJ/mol. For the same compound, the excess molar enthalpy ([2]; 318.15 K, x2 = 0.3009) was 1.33 ± 0.029 kJ/mol, the excess molar enthalpy ([2]; 318.15 K, x2 = 0.3637) was 1.48 ± 0.032 kJ/mol and the excess molar enthalpy ([2]; 318.15 K, x2 = 0.4184) was 1.56 ± 0.033 kJ/mol. The excess molar enthalpy ([2]; 318.15 K, x2 = 0.4655) was 1.61 ± 0.034 kJ/mol, the excess molar enthalpy ([2]; 318.15 K, x2 = 0.5112) was 1.62 ± 0.035 kJ/mol and the excess molar enthalpy ([2]; 318.15 K, x2 = 0.5525) was 1.61 ± 0.034 kJ/mol. The excess molar enthalpy ([2]; 318.15 K, x2 = 0.5886) was 1.6 ± 0.034 kJ/mol, the excess molar enthalpy ([2]; 318.15 K, x2 = 0.6324) was 1.55 ± 0.033 kJ/mol and the excess molar enthalpy ([2]; 318.15 K, x2 = 0.6807) was 1.49 ± 0.032 kJ/mol. For the same compound, the excess molar enthalpy ([2]; 318.15 K, x2 = 0.7307) was 1.37 ± 0.029 kJ/mol, the excess molar enthalpy ([2]; 318.15 K, x2 = 0.7788) was 1.23 ± 0.026 kJ/mol and the excess molar enthalpy ([2]; 318.15 K, x2 = 0.8291) was 1.04 ± 0.022 kJ/mol. The excess molar enthalpy ([2]; 318.15 K, x2 = 0.8801) was 0.804 ± 0.017 kJ/mol, the excess molar enthalpy ([2]; 318.15 K, x2 = 0.9259) was 0.544 ± 0.012 kJ/mol and the excess molar enthalpy ([2]; 318.15 K, x2 = 0.9646) was 0.279 ± 0.007 kJ/mol.
